Test results published in PMC7825302, “Tetraoctylammonium, a Long Chain Quaternary Ammonium Blocker, Promotes a Noncollapsed, Resting-Like Inactivated State in KcsA” (International Journal of Molecular Sciences, 2021).

What was measured:
W67 KcsA = target: T1, W67 KcsA (Streptomyces lividans, UniProt P0A334, W113F/W26F/W68F/W87F); experiment: thermal denaturation titration with fitted KD; pH […] (pH […]); effect supported by homo-FRET; format: binding
T1 construct: quadruple mutant KcsA with a single Trp (W67) per subunit, homotetramer, His-tag purified from E. coli, in DDM detergent

KcsA = target: T2, KcsA (Streptomyces lividans, UniProt P0A334); experiment: thermal denaturation (intrinsic fluorescence) titration with fitted KD; pH […] (pH […]); format: binding
T2 construct: wild-type (WT) KcsA, homotetramer, His-tag purified from E. coli, in DDM detergent
T2 sequence (P0A334 1-160): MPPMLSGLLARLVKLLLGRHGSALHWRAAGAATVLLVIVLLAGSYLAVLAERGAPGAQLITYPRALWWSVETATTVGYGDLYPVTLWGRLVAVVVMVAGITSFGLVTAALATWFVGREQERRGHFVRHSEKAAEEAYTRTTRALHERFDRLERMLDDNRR

[1] = target: T3, wild-type KcsA potassium channel (Streptomyces lividans), P0A334; experiment: SDS-PAGE; 12% SDS-PAGE of the detergent-solubilised (DDM) channel at room temperature, 10 mM Na+, pH 7.0 and pH 4.0, without or with 1 or 100 µM TOA+; conditions: remark: other sources report otherwise
T3 chain: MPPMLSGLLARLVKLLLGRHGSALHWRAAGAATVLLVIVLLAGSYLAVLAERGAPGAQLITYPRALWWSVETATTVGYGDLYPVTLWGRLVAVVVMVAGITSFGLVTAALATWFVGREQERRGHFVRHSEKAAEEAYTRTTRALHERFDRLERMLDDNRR

[2] = target: the molecule itself; experiment: FRET or BRET; homo-FRET among the W67 residues of the subunits, from steady-state and time-resolved fluorescence anisotropy; 5 µM protein in 5 mM DDM, pH 7.0 or pH 4.0, K+ titrated, with or without 100 µM TOA+

## CCCCCCCC[N+](CCCCCCCC)(CCCCCCCC)CCCCCCCC [tetraoctylammonium]
W67 KcsA
  Kd: 107 nM
KcsA
  Kd: 180 nM

B1: wild-type KcsA potassium channel, P0A334 1-160 (natural protein)
chain: MPPMLSGLLARLVKLLLGRHGSALHWRAAGAATVLLVIVLLAGSYLAVLAERGAPGAQLITYPRALWWSVETATTVGYGDLYPVTLWGRLVAVVVMVAGITSFGLVTAALATWFVGREQERRGHFVRHSEKAAEEAYTRTTRALHERFDRLERMLDDNRR
[1]
  stoichiometry N: 4

B2: W67 KcsA (quadruple mutant W26, 68, 87, 113F KcsA with a single tryptophan, W67, per subunit) (natural protein, Streptomyces lividans, UniProt P0A334 1-160, looked up)
chain: MPPMLSGLLARLVKLLLGRHGSALHFRAAGAATVLLVIVLLAGSYLAVLAERGAPGAQLITYPRALWFSVETATTVGYGDLYPVTLFGRLVAVVVMVAGITSFGLVTAALATFFVGREQERRGHFVRHSEKAAEEAYTRTTRALHERFDRLERMLDDNRR
notes: KcsA, prokaryotic K+ channel from Streptomyces lividans, native Trp residues 26, 68, 87 and 113 mutated to Phe; also called KcsA W26, 68, 87, 113F; W67 mutant channel
[2]
  binding result: binds
